Literature values in US20050232866A1, “Biochemically-activated contrast agents for magnetic resonance imaging” (Alerion Biomedical Inc., priority 2004, published 2005).

How the values were obtained:
[1] = Gd(III) chelate
[2] = physiological pH

stability constant (formation constant) logK [1]	dissociation kinetics [2]	SMILES
22.4	–	O=C([O-])CN(CCN(CC(=O)[O-])CC(=O)O)CCN(CC(=O)[O-])CC(=O)O.[Gd+3] [Gd(DTPA)]
28.5	very slow dissociation kinetics	O=C([O-])CN1CCN(CC(=O)[O-])CCN(CC(=O)O)CCN(CC(=O)[O-])CC1.[Gd+3] [Gd-DOTA]
